What was measured:
cortical infarct volume [1] = assay: permanent MCA occlusion in SHR rat, MRI; type: in vivo, spontaneously hypertensive rats (SHR); details: 0.3 mg/kg bolus IV 2 hours after occlusion onset; at 5.5 and 24 hours after occlusion
[2] = target: T1, human brain maxi-K channel α-subunit (hSlo) (Homo sapiens, UniProt Q12791); assay: whole-cell patch-clamp of hSlo-mediated outward currents in transfected HEK-293 cells; type: cell-based; details: for effect on hSlo-mediated current amplitudes: BMS-A at 1 μM
T1 construct: expressed in transfected cells; host or cells: HEK-293, stably transfected (pcDNA3, G418 selection)
Description: HEK-293 cells were transfected with 1-2 μg of pcDNA3 expression plasmid containing hSlo α-subunit cDNA (S. I. Dworetzky et al., 1994, Brain Res. Mol. Brain Res., 27:189-193) using lipofectamine (Gibco) according to the manufacturer's protocol. Cells stably transfected with hSlo were selected in medium supplemented with 0.5 mg/ml Geneticin (G418; Sigma). Transfected HEK-293 cells were grown in Minimum Essential Medium (MEM; Gibco) supplemented with 10% fetal calf serum and G418 at 37° C. in a humidified atmosphere of 5% CO2 and 95% […]. Cells were plated on fibronectin-coated glass cover slips in 35 mm culture dishes.
Outward K^+-mediated currents were examined using standard whole-cell patch-clamp techniques (P. O. Hamill et al., 1981, Pflugers Arch., 391:85-100). Records were filtered at 2 kHz prior to digitization at 10 or 20 kHz. The bathing solution contained the following components: NaCl, 145 mM; KCl, 3 mM; CaCl2, 2.5 mM; MgCl2 1 mM; HEPES, 10 mM; pH 7.4. The recording pipettes were pulled from thick-walled borosilicate glass (2-4 Mω in bathing solution), fire polished and filled with a solution containing: KCl 140 mM; MOPS, 20 mM; EGTA, 1.0 mM; pH 7.2, with CaCl2 adjusted to produce the required [Ca^2+]free (determined using the EQCAL program (Biosoft, Cambridge) incorporating the methods of A. Fabiato and F. Fabiato, 1995, J. Physiol., Paris. 75:463-505.
Stimulus generation and data acquisition were controlled by either an Axopatch 200 amplifier or an EPC 9 amplifier, and the Pulse program suite. Data were stored and analyzed off-line. The cell holding potential was −100 mV for experiments with 2.5 μM [Ca^2+]i, and −80 or […] for the remaining Ca^2+ concentrations (1 μM, 250 nM and 50 nM). A series of 10 mV depolarizing voltage steps (100 to 200 ms) appropriate to the [Ca^2+]i was applied to evoke a family of outward currents. Series resistance was ≦6Mω before 80% compensation. Currents were measured at steady state near the end of the voltage pulse.
Using the whole-cell voltage-clamp technique (R. Penner, 1995, “A Practical Guide to Patch Clamping”; In: Single Channel Recording, 2nd Edition, (Eds. B. Sakmann and E. Neher), Plenum Press, New York, pp. 3-30), hSlo-mediated outward currents were recorded with pipettes containing different concentrations of Ca^2+ (i.e., [Ca^2+]free=50 nM, 1 μM or 2.5 μM). Clamped cells were exposed to 5 μM of the fluoro-oxindole opener compound BMS-204352, or the chloro-oxindole opener compound BMS-225113, as described in Examples 1.
For outside-out and whole cell patch analyses, the solutions used are normal extracellular Na^+ solution containing (in mM): NaCl, 145; KCl, 3; CaCl2, 2.5; MgCl2, 1; HEPES, 10; ±glucose, 10; pH 7.4. Intracellular and extracellular medium for inside-out patches, or pipette solution for whole-cell patch, comprise (in mM): KCl, 140; MOPS, 20; EGTA, 1.0; pH 7.2 CaCl2 adjusted to produce the required [Ca^2+]free (determined using the EQCAL program; Biosoft, Cambridge). The cell holding potential for whole-cell recordings is −80 or −60 mV and depolarizing voltage steps appropriate to the internal Ca^2+ concentration are applied (at high intracellular Ca^2+ seals become unstable at higher clamp voltages, and are stable at lower voltages for shorter periods).
This example describes experiments that were conducted to determine the effects of intracellular Ca^2+ concentration ([Ca^2+]i) and the use of the BMS-A compound (see U.S. Pat. No. 5,869,509, Example 82), versus a known benzimidazolone compound called NS-1619 [D. Strbaek et al., 1996, Neuropharmacology, 35:903-914 and M. McKay et al., 1997, J. Neurophysiology, 71:1873], on whole-cell currents in HEK-293 cells genetically engineered to express a human brain hSlo α-subunit. For these experiments, the cell holding potential was either −80 or −100 mV and a series of 10 mV depolarizing voltage steps appropriate to the [Ca^2+]i, was applied. […]

cortical infarct volume [3] = assay: permanent MCA occlusion in SHR rat; type: in vivo, spontaneously hypertensive rats (SHR); details: administered 2 hours following occlusion onset, doses neuroprotective at earlier time points
[4] = system: voltage-dependent potassium channels (Kv1.3, Kv1.5, Kv2.1); assay: ion channel specificity, Kv currents (electrophysiology); type: cell-based
Description: (§1) To determine the specificity of the effects of the opener compounds, including BMS-204352, on maxi-K potassium channels, the compounds were tested against a representative sample of cloned and native ion channels expressed in Xenopus oocytes and clonal cell lines and were assayed using standard electrophysiological techniques readily known to and practiced by those having skill in the art. These included voltage-dependent potassium channels (Kv1.3, Kv1.5, Kv2.1), Ca^2+-activated chloride (Cl^−) channels (native oocyte channels), the cystic fibrosis transmembrane conductance regulator Cl^− channel (CFTR) and Ca^2+ currents (native GH3 cell Ca^2+ current).

[5] = system: Ca^2+-activated chloride (Cl^−) channels (native oocyte channels); assay: ion channel specificity, Cl- currents (electrophysiology); type: cell-based, Xenopus; details: native oocyte Ca2+-activated Cl- channels
Description: as §1

[6] = system: native GH3 cell Ca^2+ current; assay: ion channel specificity, native Ca2+ currents; type: cell-based; details: at 1 and 10 μM; similar reductions due to current rundown in control cells
Description: as §1

dopamine D3 receptor = target: T2, dopamine D3 receptor (Homo sapiens, UniProt P35462); assay: [3H]spiperone binding, PanLabs screen; details: initial test
T2 construct: PanLabs (contract screen)
Excerpt: (§2) BMS-204352 was also examined against a binding screen of over 50 receptors and enzyme systems (PanLabs ProfilingScreen® and DiscoveryScreen®). These systems include representatives of most G-protein coupled receptor families, ligand-gated ion channel families, as well as some voltage-gated ion channel binding sites such as the dihydropyridine receptor of L-type Ca^2+ channels. […] The significance of modest inhibition of σ1 ligand binding is unknown.

σ1 = target: T3, σ1 (Homo sapiens, UniProt Q99720); assay: [3H](+)pentazocine binding, PanLabs screen
T3 construct: PanLabs (contract screen)
Excerpt: as §2

[7] = brain penetrance and pharmacokinetics after IV administration in rat; type: in vivo
Excerpt: The ischemic penumbra is an area of low vascular perfusion. For a neuroprotective agent to reach ischemic neurons at therapeutic doses following the onset of a stroke, it should enter the brain at very high levels.

[8] = cardiovascular safety in rats; type: in vivo; details: doses at least 3× higher than the highest neuroprotective dose of 1 mg/kg IV
Description: (§3) BMS-204352 has an encouraging preclinical safety profile. […] In single- and multiple-dose studies unaffected by drug at doses at least 3×higher than the highest cytotoxic target organ changes following IV administration for 1 month at doses up to 10 mg/kg/day (rats) and for 10 days at doses up to 20 mg/kg/day (dogs).

[9] = cardiovascular safety in anesthetized and conscious dogs; type: in vivo; details: doses at least 3× higher than 1 mg/kg IV
Description: as §3

[10] = genotoxicity in vitro and in vivo
Description: as §3

teratogenicity in rats = type: in vivo
Description: as §3

[11] = teratogenicity in rabbits; type: in vivo
Description: as §3

cortical infarct volume [12] = assay: PUM,PIC,TCC model of acute stroke in Wistar normotensive rat; type: in vivo; details: administered 2 hours post-occlusion
Description: Permanent focal occlusion of the proximal middle cerebral artery (MCA) is performed using a modified version of the method originally developed by A. Tamura et al. (1981, J. Cerebr. Blood Flow Metab., 1:53-60). In the permanent unilateral MCA, permanent ipsilateral common carotid arteries (CCA) and transient contralateral CCA (PUM,PIC,TCC model), normotensive male Wistar rats are anesthetized with a combination of ketamine (40 mg/kg, i.m.) and xylazine (4.5 mg/kg, i.m.). After exposure of the left MCA via the subtemporal approach, a 2 mm section of the artery is electrocauterized and severed. Within 5 minutes, both CCA are exposed and occluded. […]
The contralateral temporary CCA occlusion reduces collateral flow sufficiently to allow for consistent, large cortical infarcts (S. Brint et al., 1988, Cerebr. Blood Flow Metab., 8:474-485). […] Animals are maintained throughout at 37° C. and monitored by means of a rectal probe. At 24 hours after the occlusion, animals are sacrificed and brains are removed and evaluated by triphenyltetrazolium chloride (TTC) staining to determine the area of infarct. Brain slices are photographed and infarct volumes determined with the assistance of computerized image analysis. Data are analyzed using ANOVAs and appropriate post-hoc tests (Dunnett's).

T1 sequence (Q12791 1-1178 isoform Q12791-5): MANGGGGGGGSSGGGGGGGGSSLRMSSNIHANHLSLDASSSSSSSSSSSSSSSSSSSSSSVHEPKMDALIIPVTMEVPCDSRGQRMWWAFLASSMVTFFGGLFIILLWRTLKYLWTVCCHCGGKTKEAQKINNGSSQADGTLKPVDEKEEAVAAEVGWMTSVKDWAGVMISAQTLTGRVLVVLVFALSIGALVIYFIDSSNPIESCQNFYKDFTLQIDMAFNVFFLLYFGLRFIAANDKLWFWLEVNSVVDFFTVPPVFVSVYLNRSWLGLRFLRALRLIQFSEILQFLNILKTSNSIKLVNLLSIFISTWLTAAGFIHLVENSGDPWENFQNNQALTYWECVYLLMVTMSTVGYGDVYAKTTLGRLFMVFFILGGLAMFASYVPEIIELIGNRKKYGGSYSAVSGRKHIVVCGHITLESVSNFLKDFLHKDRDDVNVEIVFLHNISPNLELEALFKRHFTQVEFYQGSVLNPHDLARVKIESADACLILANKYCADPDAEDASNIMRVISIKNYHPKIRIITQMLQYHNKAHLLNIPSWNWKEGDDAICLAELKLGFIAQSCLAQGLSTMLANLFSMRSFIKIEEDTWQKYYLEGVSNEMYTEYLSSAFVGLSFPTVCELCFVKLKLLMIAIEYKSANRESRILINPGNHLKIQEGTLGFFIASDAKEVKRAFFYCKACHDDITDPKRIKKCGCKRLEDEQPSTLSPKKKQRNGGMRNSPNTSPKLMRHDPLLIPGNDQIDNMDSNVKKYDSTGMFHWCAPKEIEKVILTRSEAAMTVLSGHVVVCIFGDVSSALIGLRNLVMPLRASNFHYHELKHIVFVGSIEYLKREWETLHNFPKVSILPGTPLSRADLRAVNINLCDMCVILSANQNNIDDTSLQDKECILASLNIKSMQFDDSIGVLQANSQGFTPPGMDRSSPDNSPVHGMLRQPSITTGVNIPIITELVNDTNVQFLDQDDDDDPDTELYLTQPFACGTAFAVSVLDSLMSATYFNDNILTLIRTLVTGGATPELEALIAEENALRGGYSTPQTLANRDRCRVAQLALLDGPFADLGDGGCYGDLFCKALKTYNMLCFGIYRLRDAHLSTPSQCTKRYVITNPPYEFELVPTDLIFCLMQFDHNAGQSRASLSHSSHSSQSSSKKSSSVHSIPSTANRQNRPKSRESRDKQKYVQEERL
T3 sequence (Q99720 whole entry): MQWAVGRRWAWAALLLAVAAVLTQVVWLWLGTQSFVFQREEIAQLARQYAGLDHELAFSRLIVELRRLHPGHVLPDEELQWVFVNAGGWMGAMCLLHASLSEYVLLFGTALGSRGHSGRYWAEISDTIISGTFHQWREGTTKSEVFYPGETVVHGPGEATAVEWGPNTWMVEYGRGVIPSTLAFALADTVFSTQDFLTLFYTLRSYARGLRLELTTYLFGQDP
T2 sequence (P35462 whole entry): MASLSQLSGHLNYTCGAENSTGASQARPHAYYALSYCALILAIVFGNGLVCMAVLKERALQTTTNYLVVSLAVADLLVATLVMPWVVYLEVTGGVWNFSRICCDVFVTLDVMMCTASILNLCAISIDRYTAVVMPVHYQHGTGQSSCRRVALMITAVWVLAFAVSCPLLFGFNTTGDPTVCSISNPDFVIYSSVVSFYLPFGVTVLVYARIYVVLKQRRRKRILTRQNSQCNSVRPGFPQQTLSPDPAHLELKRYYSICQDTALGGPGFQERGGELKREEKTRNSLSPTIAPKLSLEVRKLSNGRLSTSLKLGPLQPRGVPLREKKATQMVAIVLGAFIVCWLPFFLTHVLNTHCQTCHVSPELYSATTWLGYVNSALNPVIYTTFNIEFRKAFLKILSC

Question: With `COc1ccc(Cl)cc1C1(F)C(=O)Nc2cc(C(F)(F)F)ccc21` (racemic) [Compound 1, (±)-(5-Chloro-2-methoxyphenyl)-1,3-dihydro-3-fluoro-6-(trifluoromethyl)-2H-indol-2-one] as the molecule, how does the “cortical infarct volume (MRI)” value (cortical infarct volume [1]) read?
Answer: Its value is “significant reduction in cortical infarct volume”.

Question: For `O=c1oc(-c2ccc(C(F)(F)F)cc2)nn1Cc1cc(Cl)ccc1O` [BMS-A, 3-[(5-chloro-2-hydroxyphenyl)methyl]-5-[4-(trifluoromethyl)phenyl]-1,3,4-oxadiazol-2-(3H)-one], which “effect on hSlo-mediated current amplitudes” value ([2]; [Ca2+]i 50 nM) is on record?
Answer: Its value is “decreased current amplitudes over a wide range of voltages”.

Question: And the “effect on hSlo-mediated current amplitudes” value ([2]; [Ca2+]i 2.5 μM)?
Answer: The value was “increased hSlo-mediated current amplitudes at the highest voltages”.

Question: With `O=c1[nH]c2cc(C(F)(F)F)ccc2n1-c1cc(C(F)(F)F)ccc1O` [NS-1619, reference compound] as the molecule, how does the “effect on hSlo-mediated current amplitudes” value ([2]; [Ca2+]i 50 nM) read?
Answer: The value was “increasing the hS/omediated current amplitudes at upper voltages”.

Question: What about the “effect on hSlo-mediated current amplitudes” value ([2]; [Ca2+]i 2.5 μM) of the same molecule?
Answer: Its value is “increasing the hS/omediated current amplitudes at upper voltages”.

Question: Which neuroprotection (cortical infarct volume [3]) does the source give for `C[C@]12N[C@H](Cc3ccccc31)c1ccccc12` [MK-801] here?
Answer: Its neuroprotection is “ineffective”.

Question: Which results are given for `COc1ccc(Cl)cc1C1(Cl)C(=O)Nc2cc(C(F)(F)F)ccc21` (racemic) [BMS-225113, (±)-(5-chloro-2-methoxyphenyl)1,3-dihydro-3-chloro-6-(trifluoromethyl)-2H-indol-2-one]?
Answer: effect on hSlo-mediated currents ([2]; compound 5 μM, [Ca2+]i 50 nM, 250 nM, 1 μM or 2.5 μM): significant increases only at the highest concentrations of Ca^2+ (1 μM and 2.5 μM); effect on maxi-K currents ([2]; compound 10 μM, [Ca2+]i 250 nM, 1.0 μM, 2.5 μM (FIG. 3A)): greater increases in maxi-K currents under conditions of higher [Ca^2+]i

Question: With `CCc1cccc(N(C)C(N)=Nc2cccc3ccccc23)c1` [CNS-1102] as the molecule, how does the neuroprotection (cortical infarct volume [3]) read?
Answer: Its neuroprotection is “ineffective”.

Question: Which “effect on Kv currents” value [4] does the source give for `COc1ccc(Cl)cc1[C@]1(F)C(=O)Nc2cc(C(F)(F)F)ccc21` [BMS-204352, (3S)-(+)-(5-Chloro-2-methoxyphenyl)-1,3-dihydro-3-fluoro-6-(trifluoromethyl)-2H-indol-2-one] here?
Answer: The value was “no significant effect”.

Question: What about the “effect on Cl- currents” value [5] of the same molecule?
Answer: Its value is “no significant effect”.

Question: What about the “reduction of native Ca2+ current” value [6] of the same molecule?
Answer: The value was 15-16%.

Question: What about the inhibition at 10 µM (dopamine D3 receptor) of the same molecule?
Answer: Its inhibition at 10 µM is 74%.

Question: What about the inhibition at 10 µM (σ1) of the same molecule?
Answer: Its inhibition at 10 µM is 54%.

Question: And the Tmax ([7]; 5 mg/kg, rat brain, IV administration)?
Answer: Its Tmax is 15 min.

Question: What about the Cmax ([7]; brain, rat, 5 mg/kg IV bolus dose) of the same molecule?
Answer: Its Cmax is > 10000 ng/g.

Question: What about the brain half life ([7]; rat, IV) of the same molecule?
Answer: Its brain half life is 114 min.

Question: And the plasma half life ([7]; rat, IV)?
Answer: Its plasma half life is 96 min.

Question: What about the “ratio of brain to plasma of the total compound detected” value ([7]; rat, over an 8 hour period) of the same molecule?
Answer: The value was 9.6.

Question: What about the “heart rate and mean arterial blood pressure” value [8] of the same molecule?
Answer: Its value is “unaffected”.

Question: And the “heart rate and mean arterial blood pressure” value [9]?
Answer: The value was “unaffected”.

Question: And the genotoxicity [10]?
Answer: Its genotoxicity is “not genotoxic”.

Question: What about the teratogenicity (teratogenicity in rats) of the same molecule?
Answer: Its teratogenicity is “not teratogenic”.

Question: And the teratogenicity [11]?
Answer: The teratogenicity was “not teratogenic”.

Question: And the “maximum reduction of cortical infarct volume” value (cortical infarct volume [12])?
Answer: The value was 41%.

Question: And the “typical reductions of cortical infarct volume” value (cortical infarct volume [12])?
Answer: The value was 20-30%.
